target: Acetylcholinesterase (Electrophorus electricus, UniProt O42275)
Sequence (O42275 whole entry): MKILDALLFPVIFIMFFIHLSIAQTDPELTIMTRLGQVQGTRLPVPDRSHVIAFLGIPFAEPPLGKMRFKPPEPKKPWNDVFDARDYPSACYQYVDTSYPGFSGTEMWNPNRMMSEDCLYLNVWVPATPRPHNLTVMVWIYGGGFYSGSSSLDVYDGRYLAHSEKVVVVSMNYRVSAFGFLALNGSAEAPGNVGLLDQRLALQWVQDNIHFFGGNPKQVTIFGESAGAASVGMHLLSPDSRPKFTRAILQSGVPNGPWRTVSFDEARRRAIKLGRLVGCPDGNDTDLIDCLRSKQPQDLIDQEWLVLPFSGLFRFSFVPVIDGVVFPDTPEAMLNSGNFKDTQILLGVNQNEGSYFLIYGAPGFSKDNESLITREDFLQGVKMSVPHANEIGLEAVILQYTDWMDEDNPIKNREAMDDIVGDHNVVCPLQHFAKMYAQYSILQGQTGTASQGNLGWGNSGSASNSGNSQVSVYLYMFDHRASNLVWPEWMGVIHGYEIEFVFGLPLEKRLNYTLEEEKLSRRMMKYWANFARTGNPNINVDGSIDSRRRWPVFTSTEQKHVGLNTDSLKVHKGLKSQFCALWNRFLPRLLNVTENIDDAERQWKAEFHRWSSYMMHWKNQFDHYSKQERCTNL
Description: Inhibition of Electrophorus electricus AChE after 120 secs by Ellman spectroscopic method

Point of comparison: `CCC(C)C(=O)c1c(O)c(C/C=C(\C)CCC=C(C)C)c(O)c2c(-c3ccccc3)cc(=O)oc12` (centres undefined), IC50 3.06 µM. Against it:
- CC(C)=CCC/C(C)=C/Cc1c(O)c(C(=O)CC(C)C)c2oc(=O)cc(-c3ccccc3)c2c1O — higher, > 20 µM
- CC(C)CC(=O)c1c(O)c2c(c3c(-c4ccccc4)cc(=O)oc13)OC(C(C)(C)O)C2 (centres undefined) — higher, > 20 µM
- CC(C)CC(=O)c1c(O)c2c(c3c(-c4ccccc4)cc(=O)oc13)OC(C)(C)C=C2 [ISOMAMMEIGIN] — higher, > 20 µM
- CC(C)=CCc1c(O)c(C(=O)CC(C)C)c2oc(=O)cc(-c3ccccc3)c2c1O [ISOMAMMEISIN] — higher, > 20 µM
- CC(C)=CCCC1(C)C=Cc2c(O)c(C(=O)CC(C)C)c3oc(=O)cc(-c4ccccc4)c3c2O1 (centres undefined) [MESUAGENIN A] — 2.9-fold lower, 1.06 µM
- CCC(C)C(=O)c1c(O)c2c(c3c(-c4ccccc4)cc(=O)oc13)OC(C)(CCC=C(C)C)C=C2 (centres undefined) [MESUAGENIN B] — 4.4-fold lower, 0.7 µM
- CC(C)=CCC/C(C)=C/Cc1c(O)c(C(=O)C(C)C)c2oc(=O)cc(-c3ccccc3)c2c1O [MESUAGENIN C] — higher, > 20 µM
- CC(C)CCC(C)(O)C1(C)Cc2c(O)c(C(=O)CC(C)C)c3oc(=O)cc(-c4ccccc4)c3c2O1 (centres undefined) [MESUAGENIN D] — 2.9-fold higher, 8.73 µM

Source: ChEMBL document CHEMBL1275353, “4-Phenylcoumarins from Mesua elegans with acetylcholinesterase inhibitory activity” (Bioorg Med Chem, 2010)
